Experimental data reported in US10538561B2, “Peptide for treating inflammatory diseases” (priority 2015, dated 2020).
Marks after values point to notes of the source that are not given here.

What was measured:
in vitro = conditions: human
Protocol: The cells were then incubated for 72 hours. Percentage cytotoxicity was determined using MTT assay.

[1] = test system: Human endothelial cells (EA.hy 926); experiment: Tube formation in endothelial cells; assay type: cell-based; design: endothelial morphogenesis on matrigel: dose or concentration left out as unconfirmed; conditions: Ea.hy.926, 8 hours
Protocol: Cell lines: Human endothelial cells (EA.Hy 926); test item: IS 181; treatment regimen; multiple additions (2)—48 hours; concentration range: 100 6 g/ml to 5000 6 g/ml (Duplicate wells); sera condition: medium containing 1% FBS. Non-cytotoxic concentrations of IS 181 were determined using MTT assay. EA.hy926 cells were plated on ECMatrix solution. Cells were treated with IS 181 for 8 hours. Endothelial tubes were visualized under inverted light microscope at 40× magnification and images were captured. End point: visual pattern recognition and scoring of photomicrographs (FIGS. 11A-11G) based on Table-11 below: […]

[2] = Cell viability of THP-1 (MTT); assay type: cell-based, Human; conditions: human, THP-1 monocytic cells, THP-1, 24 h, read-out: Cell viability (wrt Untreated)
Protocol: (§1) Cell lines: Human monocytic cell line (THP-1); test item: IS181: treatment regimen; single addition—24 hours; concentration range: 10 μg/ml-5000 μg/ml. A) Identification of non-cytotoxic concentrations: THP-1 cells were treated with IS181 for 24 hours; effect on cell viability was assessed by MTT assay; concentrations leading to >75% cell viability were selected for IL-23 assay. […] Positive control: curcumin. […] Since supernatants corresponding to 5 concentrations were to be tested for […], we also tested 1 mg/ml.

[3] = test system: Human monocytic cell line (THP-1); experiment: Cell viability of THP-1 (MTT); assay type: cell-based
Protocol: as §1

TNF-α = experiment: LPS stimulated TNF-α secretion in RAW264.7; assay type: cell-based, Mouse; conditions: for TNF-α % decrease with respect to LPS / TNF-α Conc (pg/ml): RAW264.7 + LPS, 24 h
Protocol: Effect on pro-inflammatory cytokines against LPS stimulation: TNF-α; IL-6; IL-1-β: Cell lines: Murine macrophage cell line (RAW264.7); test item: IS181; experimental steps: pretreatment of cells with TI for 2 hours; stimulation with LPS (100 ng/ml) for 24 hours; supernatant collection for cytokine analysis; concentration range: o.1 μg/ml-500 μg/ml (duplicate wells); Cytokines: TNF-α; IL-6; IL-1-β; Method of estimating cytokines: ELISA; positive control: dexamethasone.
Cell line: RAW264.7 (Mouse macrophages); TI treatment regimen: Pretreatment for 2 h; TI Concentration range: 0.1 μg/ml-500 μg/ml (duplicate wells); LPS stimulation: 100 ng/ml; Time point for supernatants collection: 24 h; Method of estimation: ELISA; Positive control: Dexamethasone

[4] = test system: Human Keratinocytes (HaCaT); experiment: TUNEL assay; assay type: cell-based; conditions: 48 h
Protocol: Cell lines: Human Keratinocytes (HaCaT); test item (TI): IS181; treatment regimen: treated twice (once after 24 hours)-48 hours; Concentration range: 100 6 g/ml-5000 6 g/ml. […] Cells were sera starved in 1% FBS for 24 hours. Cells were treated with IS181 for 24 hours. After 24 h, cells were again treated with IS181 for 24 hours. After 48 h of first treatment, cells were processed for TUNEL staining. Fold increase in apoptotic cells [TUNEL positive] was calculated with respect to untreated control cells. Positive control: Curcumin, Anthralin, Betullinic acid. […] No increase in TUNEL positive cells was observed from 100 μg/ml-2000 μg/ml.

IL-6 = experiment: LPS+PMA stimulated IL-6 secretion in HaCaT; assay type: cell-based, Human; conditions: 24 h
Protocol: Effect on pro-inflammatory cytokines against TNF-α/LPS+PMA stimulation: TNF-α; IFN-γ; TARC; TSLP; IL-6; IL-8: Cell lines: Human keratinocytes (HaCaT); test item (TI); IS181; experimental steps: pre-treatment of cells with TI for 2 hours; stimulation with TNF-α: 20 ng/ml; stimulation with LPS+PMA-10 μg/ml LPS+40 ng/ml PMA; supernatant collection for cytokine analysis after 24 hours; concentration range: 0.1 μg/ml-100 μg/ml (duplicate wells); cytokines: TNF-α; IFN-γ; TARC; TSLP; IL-6; IL-8. Method of estimating cytokines: ELISA; positive control: dexamethasone.
Cell line: HaCaT (Human Keratinocytes); TI Treatment regimen: Pretreatment for 2 h; TI Concentration range: 0.1 μg/ml-100 μg/ml (duplicate wells); TNF-α stimulation: 20 ng/ml; LPS+PMA stimulation: 10 μg/ml LPS+40 ng/ml PMA; Time point for supernatants collection: 24 h; Method of estimation: ELISA; Positive control: Dexamethasone

IL-23 = IL-23 secretion in LPS+IFN-γ stimulated THP-1; assay type: cell-based, Human; conditions: THP-1 + LPS + IFN-γ, 24 h
Protocol: as §1

Substance: H-WVQRVVEKFLK-OH [IS181, H-Trp-Val-Gln-Arg-Val-Val-Glu-Lys-Phe-Leu-Lys-OH]
- cytotoxicity at 72 h, 5000 μg/ml (in vitro; HaCaT keratinocyte cells): 96.1%
- cytotoxicity at 72 h, 10 μg/ml (in vitro; HaCaT keratinocytes): 16.7%
- cytotoxicity at 72 h, 50 μg/ml (in vitro; HaCaT keratinocytes): 17.8%
- cytotoxicity at 72 h, 500 μg/ml (in vitro; HaCaT keratinocytes): 26.9%
- cytotoxicity at 72 h, 1000 μg/ml (in vitro; HaCaT keratinocytes): 82.8%
- cytotoxicity at 72 h, 2000 μg/ml (in vitro; HaCaT keratinocytes): 75%
- endothelial morphogenesis on matrigel [1]: Complete inhibition
- endothelial tube formation ([1]; 1 6 g/ml to 1000 6 g/m/1): block endothelial tube formation
- viability at 24 h, 10 μg/ml ([2]; 10 μg/ml): 81.2%
- viability at 24 h, 50 μg/ml ([2]; 50 μg/ml): 84.2%
- viability at 24 h, 100 μg/ml ([2]; 100 μg/ml): 90.4%
- viability at 24 h, 500 μg/ml ([2]; 500 μg/ml): 88.5%
- viability at 24 h, 1 mg/ml ([2]; 1 mg/ml): 61.3%
- viability at 24 h, 5 mg/ml ([2]; 5 mg/ml): 15%
- cytotoxicity ([3]; THP-1, 10 μg/ml-500 μg/ml): 25%
- cytotoxicity ([3]; THP-1, 1 mg/ml): 38.7%
- cytotoxicity ([3]; THP-1, 5 mg/ml): 85%
- TNF-α inhibition as compared to LPS stimulated levels (TNF-α; RAW264.7): good extent of TNF-α and IL-6 inhibition
- TNF-α % decrease with respect to LPS (TNF-α; 0.1 μ/ml): 58.8%
- TNF-α Conc (pg/ml) (TNF-α; 0.1 μ/ml): 1190.3*** pg/ml
- TNF-α % decrease with respect to LPS (TNF-α; 1 μ/ml): 32.1%
- TNF-α Conc (pg/ml) (TNF-α; 1 μ/ml): 1960.5*** pg/ml
- TNF-α % decrease with respect to LPS (TNF-α; 5 μ/ml): 34.0%
- TNF-α Conc (pg/ml) (TNF-α; 5 μ/ml): 1906.1*** pg/ml
- TNF-α % decrease with respect to LPS (TNF-α; 10 μ/ml): 60.2%
- TNF-α Conc (pg/ml) (TNF-α; 10 μ/ml): 1149.0*** pg/ml
- TNF-α % decrease with respect to LPS (TNF-α; 100 μ/ml): 17.6%
- TNF-α Conc (pg/ml) (TNF-α; 100 μ/ml): 2379.2* pg/ml
- TNF-α % decrease with respect to LPS (TNF-α; 500 μ/ml): 38.4%
- TNF-α Conc (pg/ml) (TNF-α; 500 μ/ml): 1779.9*** pg/ml
- TNF-α secretion downregulated vs LPS stimulated levels (TNF-α; RAW264.7, 0.1 μg/ml-500 μg/ml): 17.6%-60.2%
- increase in TUNEL positive cells ([4]; 100 μg/ml-2000 μg/ml): No increase
- increase in apoptotic cells (TUNEL positive population) vs untreated ([4]; 5000 μg/ml): 28.3%
- IL-6 % decrease with respect to LPS + PMA (IL-6; 0.1 μg/ml): −58.3%
- IL-6 Conc (IL-6; 0.1 μg/ml): 23.7 pg/mL
- IL-6 % decrease with respect to LPS + PMA (IL-6; 1 μg/ml): −78.5%
- IL-6 Conc (IL-6; 1 μg/ml): 26.7 pg/mL
- IL-6 % decrease with respect to LPS + PMA (IL-6; 5 μg/ml): −56.5%
- IL-6 Conc (IL-6; 5 μg/ml): 23.4 pg/mL
- IL-6 % decrease with respect to LPS + PMA (IL-6; 10 μg/ml): −48.0%
- IL-6 Conc (IL-6; 10 μg/ml): 22.1 pg/mL
- IL-6 % decrease with respect to LPS + PMA (IL-6; 100 μg/ml): −160.6%
- IL-6 Conc (IL-6; 100 μg/ml): 39.0 pg/mL
- % Inhibition of IL-23 wrt Control (LPS + IFN-γ) (IL-23; 10 μg/ml): 69.8%
- Conc. of IL-23 (IL-23; 10 μg/ml): 25.4 pg/mL
- % Inhibition of IL-23 wrt Control (LPS + IFN-γ) (IL-23; 50 μg/ml): 66.3%
- Conc. of IL-23 (IL-23; 50 μg/ml): 25.3 pg/mL
- % Inhibition of IL-23 wrt Control (LPS + IFN-γ) (IL-23; 100 μg/ml): 72.3%
- Conc. of IL-23 (IL-23; 100 μg/ml): 23.3 pg/mL
- % Inhibition of IL-23 wrt Control (LPS + IFN-γ) (IL-23; 500 μg/ml): −10.9%
- Conc. of IL-23 (IL-23; 500 μg/ml): 93.3 pg/mL
- % Inhibition of IL-23 wrt Control (LPS + IFN-γ) (IL-23; 1000 μg/ml): 39.6%
- Conc. of IL-23 (IL-23; 1000 μg/ml): 50.6 pg/mL
